Reference: patent publication US7144867B2, “Anticancer glycoside compounds” (priority 2004, dated 2006)
Marks after values point to notes of the source that are not given here.

Key:
[1] = test system: cancer cells; test: Anti-cancer / apoptotic promoting activity, method not described; details: no test described for Frondoside B
[2] = test system: HUVEC (human umbilical vein endothelial cells); test: Angiogenesis, tube formation on Matrigel; type: cell-based; details: for %, Inhibition of the total tube length (Mean ± SEM, n = 2): HUVEC, 18 hours
Protocol: Test Substance and Concentration.
Cell Line and Culture Media.
Evaluation of anti-proliferation for test substances. Matrigel matrix was thawed, kept on ice at 4° C. and 50 μL transferred to each well of a 96-microwell tissue culture plate. The plate was incubated at 37° C. for at least one hour to allow the matrix solution to solidify before treatment.
Aliquots of 200 μl of (HUVEC) suspension (about 1.5×10^4 cells/well) were placed in 96-well microtiter plate. Two microliters of compound test solution or vehicle (40% DMSO) was then added per well in duplicate and incubated at 5% CO2 at 37° C. for 18 hours. The final concentration of DMSO was 0.4%. […] Failure to form continuous networks between cell bodies in the presence of test substance was photographed and scored as to the extent of tube disruption at a magnification of 40×. […] The minimum inhibitory concentration (MIC) was calculated to assess the effect of the test substance on angiogenesis.

[3] = test system: Bcl-2; test: Western blotting, Bcl-2 in AsPC-1 cells; type: cell-based, human; details: 4 μg/mL, time-dependent (FIG. 4)
Protocol: (§1) Western blotting. Cells were seeded into flasks and cultured to 50% to 60% confluence for 24 hours. Cells were then placed in serum-free medium with or without 4 μg/mL frondoside A for periods of 0, 24, 48 and 72 hours respectively. Proteins were extracted from attached and floating cells in lysis buffer containing 4% SDS. Protein concentrations were determined using the bicinchoninic acid assay with BSA as standard. Western blotting was carried out. In brief, equal amounts of protein in the cell lysates were separated on 15% SDS-PAGE and the proteins were transferred onto nitrocellulose membranes. After blocking non-specific sites with dried milk, membranes were incubated with the appropriate dilution of primary antibody. Membranes were then incubated with a horseradish peroxidase conjugated secondary antibody. Proteins were detected using an enhanced chemiluminescence detection system.

[4] = test system: caspase 9; test: Western blotting, caspase 9 in AsPC-1 cells; type: cell-based, human; details: 4 μg/mL, time-dependent (FIG. 3)
Protocol: as §1

[5] = test system: p27; test: Western blotting, p27 in AsPC-1 cells; type: cell-based, human; details: 4 μg/mL (FIG. 5)
Protocol: as §1

[6] = test system: angiogenesis in the animal; test: Treatment of animals, anti-angiogenic evaluation (Example 6); type: in vivo; details: contemplated; range of appropriate doses
Protocol: Frondoside A or B is evaluated for anti-angiogenic (e.g., for research, drug screening or therapeutic purposes) in live animals. Animals (e.g., having or modeling a disease characterized by unwanted angiogenesis) are treated with a range of appropriate doses of Frondoside A or B. Exemplary dosages and dosage schedules include, but are not limited to, those described herein.

[7] = test system: Bax; test: Western blotting, Bax in AsPC-1 cells; type: cell-based, human; details: 4 μg/mL (FIG. 4)
Protocol: as §1

[8] = test system: AsPC-1 human pancreatic cancer xenografts; test: AsPC-1 xenografts in athymic mice; type: in vivo; details: 10 μg/kg/day intraperitoneal, 4 weeks
Protocol: Animal Study. Athymic mice (BALB/c nu/nu, 5-week old females) were purchased from Charles River Laboratories (Wilmington, Mass.). Mice were acclimatized to the animal facility for one week prior to receiving xenografts. Xenografts of three million AsPC-1 cells were injected into the flanks of mice. Once visible tumors were evidenced 4–5 days after injection, the animals were divided equally into two groups (6 animals/group) and treated with frondoside A (10 μg/kg/day) or control vehicle (100 μL phosphate-buffered saline, PBS) by intraperitoneal injection. Animal weight and tumor size were recorded every three days. The formula used for tumor volume was (length)H(width)H(length+width/2)H0.526=volume (Naito et al., Int. J. Cancer 58:730 [1994]). After 4-weeks of treatment the animals were euthanized and the tumors were carefully dissected and tumor weights measured.

[9] = test system: AsPC-1 cells; test: Cell proliferation by cell counting; type: cell-based, human; details: 4 μg/mL
Protocol: Cell culture. The poorly differentiated human pancreatic cancer line AsPC-1 was purchased from the American Type Culture Collection (ATCC, Manassas, Va., USA). Cells were cultured in MEM medium supplemented with penicillin G (100 U/mL), streptomycin (100 U/mL) and 10% FBS at 37° C. in humidified air with 5% CO2. Cells were harvested by incubation in trypsin-EDTA solution for 10–15 minutes. Cells were then centrifuged at 300×g for 5 minutes and cell pellets were suspended in fresh culture medium prior to seeding into culture flasks or plates.
Cell proliferation assay. Cell growth was analyzed by ^3H-methyl thymidine incorporation and cell counting. Following treatment of pancreatic cancer cells with a series of concentrations of frondoside A from 1 μg/mL to 16 μg/mL, cellular DNA synthesis was assayed by adding ^3H-methyl thymidine at 0.5 μLCi/well. After 2 hours incubation, the cells were washed twice with PBS, precipitated with 10% TCA for two hours, and solubilized from each well with 0.5 ml of 0.4 N NaOH. Incorporation of ^3H-methyl thymidine into DNA was measured by adding scintillation liquid and counting in a scintillation counter (LKB BackBeta, Wallac, Turku, Finland). […] The cells were counted using Z1-Coulter Counter (Luton, UK).

For `COC1C(O)C(CO)OC(OC2C(O)COC(OC3C(C)OC(OC4C(OC5CCC6(C)C7CCC89C(=O)OC(C)(CCCC(C)C)C8C(OC(C)=O)CC9(C)C7=CCC6C5(C)C)OCC(OS(=O)(=O)[O-])C4O)C(OC4OCC(O)C(O)C4O)C3O)C2O)C1O.[Na+]` [Frondoside A, 3-O-methyl-β-D-glucopyranosyl-(1→3)-β-D-xylopyranosyl-(1→4)-[β-D-xylopyranosyl-(1→2)]-β-D-quinovopyranosyl-(1→2)-4-O-sodium sulfate-β-D-xylopyranosyl-3-O-holost-7(8)-en-3β-ol-16β-O-acetate], the “apoptotic promoting activity in cancer cells” value [1] was “apoptotic promoting activity”, the “inhibition of tube formation relative to the vehicle-treated controls” value ([2]; 100, 10 and 1 μM (≧30%)) was “significant inhibition” and the “%, Inhibition of the total tube length (Mean ± SEM, n = 2)” value (“%, Inhibition … (Mean ± SEM, n = 2)” below) ([2]; 0.01 μM) was 1 ± 1%. For the same molecule, the “%, Inhibition … (Mean ± SEM, n = 2)” value ([2]; 0.1 μM) was 3 ± 4%, the “%, Inhibition … (Mean ± SEM, n = 2)” value ([2]; 1 μM) was 88 ± 6^a,b % and the “%, Inhibition … (Mean ± SEM, n = 2)” value ([2]; 10 μM) was 100 ± 0^a %. For the same molecule, the “%, Inhibition … (Mean ± SEM, n = 2)” value ([2]; 100 μM) was 100 ± 0^a %, the “MIC (Minimum Inhibitory Concentration)” value ([2]; tube formation, significant inhibition ≧30%) was 1 µM and the “expression of Bcl-2” value [3] was “decreased expression”. The “activation of caspase 9” value [4] was “reduction in the amounts of the respective procaspase forms”, the “expression of p27” value [5] was “not changed” and the “angiogenesis in the animal” value [6] was “inhibits angiogenesis”. The “concentrations of the pro-apoptotic protein Bax” value [7] was “increased”, the “body weights of control and treated animals” value ([8]; athymic mice) was “no significant difference” and the “toxicity through the treatment period” value ([8]; athymic mice) was “No toxicity was seen”. For the same molecule, the “growth of subcutaneously transplanted AsPC-1 cells (tumor volume and tumor weight)” value ([8]; athymic mice (FIG. 6)) was “markedly inhibited the growth”, the “cell number compared to control” value ([9]; 48 and 72 hours) was “marked and progressive decrease in cell number” and the “cell number compared to control” value ([9]; first 24 hours) was “no obviously effect”.
